Results as given in patent publication US8809386B2, “Use of dynamin ring stabilizers” (Children's Medical Research Institute, priority 2009, dated 2014).

How the values were obtained:
[1] = test system: LPS-induced proteinuria, BALB/c mice; assay: LPS-induced proteinuria in mice; format: in vivo, mouse; settings: IP, 300 μg per 100 g body weight
Method: FIG. 21 is a graph showing that the ring stabilizer Bis-T-23 rescues proteinuria in lipopolysaccharide (LPS) treated mice. LPS is a model for proteinuric kidney disease. Albumin levels were determined in 6 mice prior to (Con), 24 hours after LPS injection (2×LPS), and 2, 4, 6 and 8 h after administration of Bis-T-23 (open bars) or DMSO (delivery solution, grey bars). A decrease in proteinuria was noted from 2-8 hours after administration of a single dose of this ring stabilizer.
A second model of acute proteinuria was then employed to test the ability of a dynamin ring stabilizer to ameliorate proteinuria in a reversible model of proteinuric kidney disease. LPS-induced proteinuria was utilized as previously described (Sever et al., 2007). Briefly, four week old female BALB/c mice were injected twice intraperitoneally (IP) with 200 μg of ultrapure LPS diluted in phosphate-buffered saline at a concentration of 1 mg/ml. Proteinuria developed within 48 h (FIG. 20, 2×LPS). Bis-T-23 was dissolved in DMSO to the appropriate concentrations and 300 μg per 100 g body weight was delivered by IP injection, and DMSO was used as a vehicle control. The level of protein in the urine was determined by using mouse Albumin-specific ELISA kit according to manufacturer's protocol (Bethyl Laboratories).

[2] = test system: purified full length dynamin I; assay: Electron microscopy of dynamin ring formation in the absence of a template; format: biochemical; settings: 5.4 μM, 200 nM dynamin, no template, FIG. 9C
Method: Dynamin was then examined by electron microscopy. […] The rings are bona fide dynamin rings (B).
Next, the effect of a ring stabilizer Bis-T-23 on the formation of dynamin rings in the absence of a template like PS liposomes was examined. At high concentrations in vitro, dynamin is well known to self-assemble into rings that are detectable by EM (Hinshaw and Schmid, 1995). Such self assembly requires high dynamin concentrations typically in the order of 500-1000 nM and is not observed at lower dynamin concentrations. Specifically, the effect of Bis-T-23 (5.4 μM) on 200 nM dynamin in the absence of template was tested, which is well below the concentration threshold for self-assembly. […] High power images confirmed that the electron dense structures are bona fide dynamin rings (FIG. 9B). […] The findings with basal dynamin are completely unexpected for a dynamin inhibitor and are indicative of the ring stabilizer activity.

dynamin = assay: Electron microscopy of helical dynamin on PS liposomes; format: biochemical; settings: 5 μM, FIG. 8
From the text: FIGS. 8 (A) to (D) are electron micrographs showing Bis-T-23 prevents constriction or helical expansion of dynamin on PS liposomes in vitro. It stabilizes the dynamin helix, which loses its flexibility and forms uniform diameter rings, inhibiting dynamin ring disassembly.
A characteristic of helical dynamin is that the helix is a highly flexible structure. Upon GTP hydrolysis it is able to rapidly reduce its diameter (constriction) while also expanding in length (helical expansion) (Stowell et al. 1999; Chen et al. 2004; Roux et al. 2006). This is thought to be a potential mechanism utilized for the fission of the necks of newly budded endocytic vesicles in cells (Roux et al. 2006). The highly flexible nature of helical dynamin was confirmed by EM analysis of dynamin bound to phosphatidylserine liposomes in the absence of GTP or GDP (FIG. 8). Dynamin mixed with PS liposomes formed a helix with specific characteristics (FIGS. 8A and C): the individual loops of the helix were highly varied in diameter, formed at different angles relative to the underlying lipid, and the spacing between loops was highly variable. […] Bis-T-23 bound dynamin appeared similar to previous reports of GTPγS-bound dynamin on lipid nanotubes (Stowell et al. 1999).

dynamin I = assay: Dynamin disassembly centrifugation assay, helix preassembled on PS liposomes; format: biochemical; settings: FIG. 7
Method: Briefly, dynamin I was preassembled as a helix in the presence of PS liposomes for 30 min, after which the dynamin ring stabilizer Bis-T-23 or non-dynamin ring stabilizer dynole 34-2 (see Example 4) were added. The samples were then centrigued in a microfuge for 10 min to collect supernatans (Sup) or pellets. In this assay, helical dynamin is found primarily in the pellet. However, the addition of either NaCl (150 mM) or Mg/GTP (1 mM) is known to disassemble dynamin and it is found primarily in the supernatant (see FIG. 7). […] This unique mechanism of action explains why dynamin ring stabilizers can stimulate basal GTPase while inhibiting helical dynamin GTPase activity at the same time.

cultured mouse podocytes = assay: Actin cytoskeleton and focal adhesions in cultured podocytes (rhodamine-phalloidin, anti-paxillin); format: cell-based; settings: 10 min after addition
Method: FIG. 19 is a photograph showing the effects of Bis-T-23 on the actin cytoskeleton in podocytes. Cells were stained using rhodamine-phalloidin for F-actin (left column) and anti-paxillin monoclonal antibody (centre column). The merged staining is shown on the right column.
To determine if the in vitro action of the dynamin ring stabilizers also occurs in cells, the effect of Bis-T-23 on the actin cytoskeleton in cultured mouse podocytes was tested (FIG. 19). […] Thus, the observed increase in stress fibers is unlikely due to inhibition of endocytosis.

[3] = test system: truncated dynamin I construct known as GG2; assay: Basal GTPase activity of assembly-incompetent dynamin construct GG2; format: biochemical; settings: FIG. 5
From the text: FIG. 5 is a graph showing the basal GTPase activity of the truncated dynamin I construct known as GG2, containing only the GTPase domain linked to a small part of the GED domain (Chappie et al 2009). Unlike full length dynamin this construct is known to be unable to self-assemble or to form rings. Bis-T-22 and -23 and imminodyn-22 have no effect on the basal activity of this assembly-incompetent construct.
To verify that ring stabilizers require dynamin oligomerisation, a recombinant form of dynamin, called GG-2, which is dimeric yet is unable to self-associate into higher order oligomers (Chappie et al 2009) was tested. Ring stabilizers are unable to stimulate the basal activity of such constructs (FIG. 5).

N#CC(=Cc1cc(O)c(O)c(O)c1)C(=O)NCCCNC(=O)C(C#N)=Cc1cc(O)c(O)c(O)c1 [Bis-T-23, 2-cyano-N-{3-[2-cyano-3-(3,4,5-trihydroxyphenyl)-acryloylamino]-propyl}-3-(3,4,5-trihydroxyphenyl)-acrylamide]
proteinuria (urine albumin) ([1]; 2-6 h after injection, FIG. 21): partially rescued proteinuria | proteinuria (urine albumin) ([1]; 8 h after injection): ability to rescue proteinuria was reduced | increase in bona fide dynamin rings [2]: 6 fold | shape of dynamin helix on PS liposomes (dynamin): drastically altered the helical shape | disassembly of helical dynamin by NaCl (150 mM) or Mg/GTP (1 mM) (dynamin I): reduce the disassembly of helical dynamin | stress fibers in podocytes (cultured mouse podocytes; FIG. 19): dramatic increase in well-defined stress fibers | number of focal adhesions (paxillin staining) (cultured mouse podocytes; FIG. 19B): dramatic increase in the number of focal adhesions | effect on basal GTPase activity of GG2 [3]: no effect
